Data reported in US8415469B2, “Compounds and methods for kinase modulation, and indications therefor” (Plexxikon Inc., priority 2005, dated 2013).

What was measured:
Assay type in all cases: biochemical
B-Raf = molecular target: T1, B-Raf (Homo sapiens, UniProt P15056); assay: AlphaScreen kinase assay, B-Raf; conditions: read-out: IC50, activity toward kinase B-Raf
T1 construct: purchased Upstate Biotechnology

B-Raf V600E = molecular target: T2, B-Raf V600E (Homo sapiens, UniProt P15056, V600E); assay: AlphaScreen kinase assay, B-Raf V600E; conditions: read-out: IC50, activity toward kinase B-Raf V600E
T2 construct: P4254. pFastBacBD-CDC37 BRAF D437-K722-X, V600E; His6 with pFastBac HT leader (TEV site) (N); made in house; host or cells: Sf9 (baculovirus; chaperone CDC37 co-expressed)

c-Raf-1 = molecular target: T3, c-Raf-1 (Homo sapiens, UniProt P04049); assay: AlphaScreen kinase assay, c-Raf-1; conditions: read-out: IC50, activity toward kinase c-Raf-1
T3 construct: purchased Upstate Biotechnology

Kit = molecular target: T4, Kit (Homo sapiens, UniProt P10721); assay: AlphaScreen kinase assay, Kit; conditions: read-out: IC50, activity toward kinase Kit
T4 construct: P1332.N6 BI PTP KIT M552-K948-X COD; His6 (N); made in house; host or cells: E. coli (PTP1B co-expressed)

Fms = molecular target: T5, Fms (Homo sapiens, UniProt P07333); assay: AlphaScreen kinase assay, Fms; conditions: read-out: IC50, activity toward kinase Fms
T5 construct: purchased Upstate Biotechnology

FGFR1 = molecular target: T6, FGFR1 (Homo sapiens, UniProt P11362, C488A/C584S); assay: AlphaScreen kinase assay, FGFR1; conditions: read-out: IC50, activity toward kinase FGFR
T6 construct: P1351.pET N6 BI-PTP FGFR A458-E765-X C488A, C584S; made in house; host or cells: E. coli (PTP1B co-expressed)
T6 sequence (P11362 458-765 C488A/C584S): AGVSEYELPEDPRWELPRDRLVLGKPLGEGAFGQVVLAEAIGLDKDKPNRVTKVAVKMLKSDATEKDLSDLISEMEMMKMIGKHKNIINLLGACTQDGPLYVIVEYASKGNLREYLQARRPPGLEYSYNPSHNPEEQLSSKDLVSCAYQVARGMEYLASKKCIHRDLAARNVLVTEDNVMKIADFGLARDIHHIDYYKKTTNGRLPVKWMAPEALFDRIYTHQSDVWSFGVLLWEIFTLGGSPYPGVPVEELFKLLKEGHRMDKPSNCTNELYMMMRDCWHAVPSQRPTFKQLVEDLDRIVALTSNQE

T1 sequence (P15056 whole entry): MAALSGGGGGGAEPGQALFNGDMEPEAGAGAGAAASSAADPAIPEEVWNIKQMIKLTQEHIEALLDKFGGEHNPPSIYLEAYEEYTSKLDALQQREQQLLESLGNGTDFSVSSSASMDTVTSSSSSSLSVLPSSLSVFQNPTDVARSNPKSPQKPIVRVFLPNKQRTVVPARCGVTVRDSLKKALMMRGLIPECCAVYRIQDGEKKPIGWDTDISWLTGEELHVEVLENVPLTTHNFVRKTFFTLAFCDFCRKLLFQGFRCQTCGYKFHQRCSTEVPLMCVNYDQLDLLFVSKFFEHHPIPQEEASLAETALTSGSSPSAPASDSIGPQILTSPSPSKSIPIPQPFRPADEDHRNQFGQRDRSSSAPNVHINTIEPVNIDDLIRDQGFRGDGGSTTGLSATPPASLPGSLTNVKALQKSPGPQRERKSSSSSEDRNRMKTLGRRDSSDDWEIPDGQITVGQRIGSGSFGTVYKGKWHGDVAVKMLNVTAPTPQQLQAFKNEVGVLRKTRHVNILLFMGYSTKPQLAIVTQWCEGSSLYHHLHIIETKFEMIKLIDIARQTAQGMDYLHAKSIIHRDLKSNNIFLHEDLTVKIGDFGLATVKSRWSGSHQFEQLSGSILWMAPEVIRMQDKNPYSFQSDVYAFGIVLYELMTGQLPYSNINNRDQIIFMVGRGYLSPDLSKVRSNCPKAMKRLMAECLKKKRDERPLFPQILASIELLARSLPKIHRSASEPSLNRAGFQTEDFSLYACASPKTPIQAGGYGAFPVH
T2 sequence (P15056 with tags, fused parts or gaps V600E): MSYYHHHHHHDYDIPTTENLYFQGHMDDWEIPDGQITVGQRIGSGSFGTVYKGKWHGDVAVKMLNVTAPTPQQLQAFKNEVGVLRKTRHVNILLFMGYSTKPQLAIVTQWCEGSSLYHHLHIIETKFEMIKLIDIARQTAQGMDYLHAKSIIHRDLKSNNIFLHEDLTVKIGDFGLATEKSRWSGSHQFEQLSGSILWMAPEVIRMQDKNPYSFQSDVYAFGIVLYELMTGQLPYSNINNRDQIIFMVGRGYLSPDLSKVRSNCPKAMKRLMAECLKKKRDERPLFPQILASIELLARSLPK
T4 sequence (P10721 with tags, fused parts or gaps): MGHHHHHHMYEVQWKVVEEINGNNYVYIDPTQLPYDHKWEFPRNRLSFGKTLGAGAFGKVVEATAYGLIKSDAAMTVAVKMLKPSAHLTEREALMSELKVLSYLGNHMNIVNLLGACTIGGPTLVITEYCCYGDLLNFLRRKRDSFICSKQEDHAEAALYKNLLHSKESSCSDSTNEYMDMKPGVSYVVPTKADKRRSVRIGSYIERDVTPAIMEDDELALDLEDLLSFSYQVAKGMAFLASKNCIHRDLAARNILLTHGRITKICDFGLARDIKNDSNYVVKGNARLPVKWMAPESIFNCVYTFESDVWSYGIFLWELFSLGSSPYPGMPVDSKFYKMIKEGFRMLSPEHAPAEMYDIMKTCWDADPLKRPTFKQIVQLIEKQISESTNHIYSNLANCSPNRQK
T5 sequence (P07333 20-972): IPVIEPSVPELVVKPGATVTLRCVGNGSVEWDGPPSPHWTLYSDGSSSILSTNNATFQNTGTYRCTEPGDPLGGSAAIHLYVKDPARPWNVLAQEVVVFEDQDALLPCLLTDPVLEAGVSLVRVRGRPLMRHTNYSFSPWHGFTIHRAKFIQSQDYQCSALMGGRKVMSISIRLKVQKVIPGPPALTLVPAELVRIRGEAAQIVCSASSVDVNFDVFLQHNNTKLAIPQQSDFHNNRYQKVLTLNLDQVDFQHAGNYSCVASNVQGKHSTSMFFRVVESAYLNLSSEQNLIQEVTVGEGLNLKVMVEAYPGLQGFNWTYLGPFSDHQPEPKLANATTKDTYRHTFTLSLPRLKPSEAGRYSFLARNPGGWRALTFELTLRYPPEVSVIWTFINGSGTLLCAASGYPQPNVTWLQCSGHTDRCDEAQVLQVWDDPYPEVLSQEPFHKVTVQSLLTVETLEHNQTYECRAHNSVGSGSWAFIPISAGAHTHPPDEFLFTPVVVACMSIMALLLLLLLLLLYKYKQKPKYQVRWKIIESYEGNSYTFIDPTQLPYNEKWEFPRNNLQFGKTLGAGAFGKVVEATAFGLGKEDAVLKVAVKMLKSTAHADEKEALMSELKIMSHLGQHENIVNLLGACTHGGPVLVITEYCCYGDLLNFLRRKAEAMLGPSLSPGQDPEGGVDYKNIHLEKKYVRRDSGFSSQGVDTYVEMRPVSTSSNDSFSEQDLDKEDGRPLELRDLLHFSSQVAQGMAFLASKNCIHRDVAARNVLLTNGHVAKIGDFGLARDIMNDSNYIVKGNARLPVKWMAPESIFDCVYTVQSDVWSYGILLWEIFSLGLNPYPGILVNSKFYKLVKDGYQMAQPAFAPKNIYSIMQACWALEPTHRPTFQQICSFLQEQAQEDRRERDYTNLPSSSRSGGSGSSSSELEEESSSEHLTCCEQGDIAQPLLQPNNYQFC
T3 sequence (P04049 whole entry): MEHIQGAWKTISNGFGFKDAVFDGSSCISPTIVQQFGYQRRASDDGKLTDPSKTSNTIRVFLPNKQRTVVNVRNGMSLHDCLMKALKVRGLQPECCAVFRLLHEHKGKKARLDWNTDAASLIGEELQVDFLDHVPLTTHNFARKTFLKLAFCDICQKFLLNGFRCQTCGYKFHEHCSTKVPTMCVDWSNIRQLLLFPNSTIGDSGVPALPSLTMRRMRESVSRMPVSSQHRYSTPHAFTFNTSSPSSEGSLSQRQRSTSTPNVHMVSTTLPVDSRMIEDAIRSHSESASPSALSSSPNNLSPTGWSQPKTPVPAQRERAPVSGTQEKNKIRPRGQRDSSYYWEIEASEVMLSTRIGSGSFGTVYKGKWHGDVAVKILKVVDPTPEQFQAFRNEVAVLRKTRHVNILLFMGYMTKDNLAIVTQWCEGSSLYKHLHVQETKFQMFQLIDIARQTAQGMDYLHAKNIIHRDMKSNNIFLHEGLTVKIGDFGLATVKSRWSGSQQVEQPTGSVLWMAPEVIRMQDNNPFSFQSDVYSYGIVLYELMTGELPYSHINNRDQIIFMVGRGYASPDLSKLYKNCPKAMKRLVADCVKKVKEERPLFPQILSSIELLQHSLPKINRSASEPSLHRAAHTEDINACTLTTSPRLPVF

SMILES | IC50 (B-Raf) [µM] | IC50 (B-Raf V600E) [µM] | IC50 (c-Raf-1) [µM] | IC50 (Kit) [µM] | IC50 (Fms) [µM] | IC50 (FGFR1) [µM]
O=C(Nc1cccc(C(=O)c2c[nH]c3ncc(Cl)cc23)c1)Nc1cccc(C(F)(F)F)c1F [Compound P-1740, 1-[3-(5-Chloro-1H-pyrrolo[2 3-b]pyridine-3-carbonyl)-phenyl]-3-(2-fluoro-3-trifluoromethyl-phenyl)-urea] | ≤ 10 | ≤ 10 | ≤ 10 | ≤ 10 | ≤ 10 | 
O=C(Nc1cccc(C(=O)c2c[nH]c3ncccc23)c1)Nc1cc(C(F)(F)F)ccc1Cl [Compound P-1712, 1-(2-Chloro-5-trifluoromethyl-phenyl)-3-[3-(1H-pyrrolo[2,3-b]pyridine-3-carbonyl)-phenyl]-urea] | ≤ 10 | ≤ 10 | ≤ 10 | ≤ 10 | ≤ 10 | 
COC(c1ccc(NCc2ccc(C(F)(F)F)cc2)nc1)c1c[nH]c2ncccc12 (stereo not drawn) [Compound P-0382] | ≤ 10 | ≤ 10 | ≤ 10 |  |  | 
CCCCOc1ccc(S(=O)(=O)Nc2ccc(F)c(C(=O)c3c[nH]c4ncccc34)c2F)cc1 [Compound P-1006, 4-Butoxy-N-[2,4-difluoro-3-(1H-pyrrolo[2,3-b]pyridine-3-carbonyl)-phenyl]-benzenesulfonamide] | ≤ 10 | ≤ 10 | ≤ 10 |  |  | 
CCCS(=O)(=O)Nc1ccc(Cl)c(C(=O)c2c[nH]c3ncc(-c4ccccc4)cc23)c1F [Compound P-0776, Propane-1-sulfonic acid [4-chloro-2-fluoro-3-(5-phenyl-1H-pyrrolo[2,3-b]pyridine-3-carbonyl)-phenyl]-amide] | ≤ 10 | ≤ 10 | ≤ 10 | ≤ 10 |  | ≤ 10
O=C(Nc1cccc(C(=O)c2c[nH]c3ncc(Cl)cc23)c1)Nc1ccc(C(F)(F)F)cc1Cl [Compound P-1739, 1-[3-(5-Chloro-1H-pyrrolo[2,3-b]pyridine-3-carbonyl)-phenyl]-3-(2-chloro-4-trifluoromethyl-phenyl)-urea] | ≤ 10 | ≤ 10 | ≤ 10 | ≤ 10 | ≤ 10 | 
O=S(=O)(Nc1ccc(F)c(C(O)c2c[nH]c3ncc(Br)cc23)c1F)c1ccccc1 (stereo not drawn) [Compound P-0959] | ≤ 10 | ≤ 10 | ≤ 10 |  |  | 
CCCS(=O)(=O)Nc1ccc(F)c(C(=O)c2c[nH]c3ncc(-c4ccc(N5CCOCC5)nc4)cc23)c1F [Compound P-1881, Propane-1-sulfonic acid {2,4-difluoro-3-[5-(6-morpholin-4-yl-pyridin-3-yl)-1H-pyrrolo[2,3-b]pyridine-3-carbonyl]-phenyl}-amide] | ≤ 10 | ≤ 10 | ≤ 10 | ≤ 10 | ≤ 10 | 
CCCS(=O)(=O)Nc1ccc(Cl)c(C(=O)c2c[nH]c3ncc(Cl)cc23)c1F [Compound P-1004, Propane-1-sulfonic acid [4-chloro-3-(5-chloro-1H-pyrrolo[2,3-b]pyridine-3-carbonyl)-2-fluoro-phenyl]-amide] | ≤ 10 | ≤ 10 | ≤ 10 |  |  | ≤ 10
O=C(Nc1ccc(F)c(C(=O)c2c[nH]c3ncccc23)c1F)OCc1ccccc1 [Compound P-0894, [2,4-Difluoro-3-(1H-pyrrolo[2,3-b]pyridine-3-carbonyl)-phenyl]-carbamic acid benzyl ester] | ≤ 10 | ≤ 10 | ≤ 10 |  |  | ≤ 10
COC(c1ccc(N(Cc2ccc(Cl)cc2)C(=O)OC(C)(C)C)nc1)c1c[nH]c2ncc(Br)cc12 (stereo not drawn) [Compound P-0779] | ≤ 10 | ≤ 10 | ≤ 10 |  |  | 
Cc1nc2ccc(Nc3ccnc4[nH]ccc34)cc2s1 [Compound P-1014] | ≤ 10 | ≤ 10 | ≤ 10 |  |  | 
O=[N+]([O-])c1cccc(Nc2ccnc3[nH]ccc23)c1 [Compound P-0973] | ≤ 10 |  | ≤ 10 |  |  | 
CC(=O)Nc1cccc(Nc2ccnc3[nH]ccc23)c1 [Compound P-0941] | ≤ 10 |  | ≤ 10 |  |  | 

Other lines, results leading:

IC50 (B-Raf) [µM] | IC50 (B-Raf V600E) [µM] | IC50 (c-Raf-1) [µM] | IC50 (Kit) [µM] | IC50 (Fms) [µM] | IC50 (FGFR1) [µM] | SMILES
≤ 10 | ≤ 10 | ≤ 10 |  |  |  | CCCS(=O)(=O)Nc1ccc(F)c(C(O)c2c[nH]c3ncc(OC)cc23)c1F (stereo not drawn) [Compound P-1243, Propane-1-sulfonic acid {2,4-difluoro-3-[hydroxy-(5-methoxy-1H-pyrrolo[2,3-b]pyridin-3-yl)-methyl]-phenyl}-amide]
≤ 10 | ≤ 10 | ≤ 10 | ≤ 10 | ≤ 10 |  | CCCS(=O)(=O)Nc1ccc(F)c(C(=O)c2c[nH]c3ncc(C(=O)NCC)cc23)c1F [Compound P-1630, 3-[2,6-difluoro-3-(propane-1-sulfonylamino)-benzoyl]-1H-pyrrolo[2,3-b]pyridine-5-carboxylic acid ethylamide]
≤ 10 | ≤ 10 | ≤ 10 |  |  |  | CCCS(=O)(=O)Nc1cccc(C(=O)c2c[nH]c3ncc(F)cc23)c1F [Compound P-1028, propane-1-sulfonic acid [2-fluoro-3-(5-fluoro-1H-pyrrolo[2,3-b]pyridine-3-carbonyl)-phenyl]-amide]
≤ 10 | ≤ 10 | ≤ 10 | ≤ 10 | ≤ 10 |  | COCCOc1cnc2[nH]cc(C(=O)c3c(F)ccc(NS(=O)(=O)c4cccc(F)c4)c3F)c2c1 [Compound P-1871, N-{2,4-Difluoro-3-[5-(2-methoxy-ethoxy)-1H-pyrrolo[2,3-b]pyridine-3-carbonyl]-phenyl}-3-fluoro-benzenesulfonamide]
≤ 10 | ≤ 10 | ≤ 10 | ≤ 10 | ≤ 10 |  | CCc1cnc2[nH]cc(C(=O)c3c(F)ccc(NS(=O)(=O)c4ccc(C(F)(F)F)cc4)c3F)c2c1 [Compound P-1783, N-[3-(5-Ethyl-1H-pyrrolo[2,3-b]pyridine-3-carbonyl)-2,4-difluoro-phenyl]-4-trifluoromethyl-benzenesulfonamide]
≤ 10 | ≤ 10 | ≤ 10 | ≤ 10 | ≤ 10 |  | O=C(Nc1cccc(C(=O)c2c[nH]c3ncccc23)c1)Nc1cccc(C(F)(F)F)c1F [Compound P-1714, 1-(2-Fluoro-3-trifluoromethyl-phenyl)-3-[3-(1H-pyrrolo[2,3-b]pyridine-3-carbonyl)-phenyl]-urea]
≤ 10 | ≤ 10 | ≤ 10 | ≤ 10 | ≤ 10 |  | O=C(Nc1ccccc1)Nc1cccc(C(=O)c2c[nH]c3ncc(Cl)cc23)c1 [Compound P-1733, 1-[3-(5-Chloro-1H-pyrrolo[2,3-b]pyridine-3-carbonyl)-phenyl]-3-phenyl-urea]
≤ 10 | ≤ 10 | ≤ 10 |  | ≤ 10 |  | O=C(Nc1cccc(C(=O)c2c[nH]c3ncc(Cl)cc23)c1)Nc1cc(C(F)(F)F)ccc1Cl [Compound P-1738, 1-[3-(5-Chloro-1H-pyrrolo[2,3-b]pyridine-3-carbonyl)-phenyl]-3-(2-chloro-5-trifluoromethyl-phenyl)-urea]
≤ 10 | ≤ 10 | ≤ 10 |  |  |  | O=S(=O)(Nc1ccc(F)c(C(O)c2c[nH]c3ncc(F)cc23)c1F)c1ccccc1 (stereo not drawn) [Compound P-1003]
